System: alpha-smooth muscle actin (α-SMA)
Experiment: Inhibition of TGF-β induced expression of alpha-smooth muscle actin (α-SMA) in CFSC cells, western blot
Format: cell-based
Details: compound at 10 μM, TGF-β (10 ng/mL), 24 hours, decrease in band intensity vs TGF-β only
Description: The ability of a compound to inhibit the TGF-β induced expression of alpha-smooth muscle actin (α-SMA) was evaluated in CCL4-treated fat storing (CFSC) cells. α-SMA is considered as a reliable marker of hepatic stellate cell activation and a key biomarker for liver fibrosis. See, e.g., Meng et al., Nat. Rev. Nephrol. 2016, 12, 325-38; Fabregat et al., FEBS J. 2016, 283, 2219-32.
CFSC cells maintained in a DMEM medium supplemented with 10% fetal bovine serum were seeded to 12-well culture dishes and grown to a confluence of 60-70% the next day. Culture was changed to a serum-free DMEM medium and treated with a compound at 10 μM in the presence of TGF-β (10 ng/mL). The cells were incubated for another 24 hours. All culture was maintained at 37° C. in 5% carbon dioxide.
A NP-40 lysate solution (50 mM Tris (pH 7.4), 150 mM NaCl, 1% NP-40) with EDTA free cocktail added was used to lyse the cells on ice for 30 min. The lysate was collected and centrifuged at 4° C. for 10 min at 12,000 rpm. The pellet was discarded and the supernatant was transferred to a new tube. Cell lysates were loaded with 5×loading buffer and boiled for 10 min, resolved by 10% SDS-polyacrylamide gel electrophoresis (SDS-PAGE), and transferred to PVDF membrane. The membrane was blocked with 5% skim milk in Tris-buffered saline and TWEEN® 20 (TBST; 10 mM Tris-HCl (pH 8.0), 150 mM NaCl, 0.1% TWEEN® 20) for 1 h at room temperature and then incubated with α-SMA and […] antibodies overnight at 4° C. After washing twice with TBST, the membrane was probed with a horseradish […] anti-immunoglobulin (1:5000 dilution) for 1 h at room temperature. After two subsequent rinses in TBST, immunoreactive products were reacted with ECL and visualized by a UVP CHEMSTUDIO™ imaging system. The western blotting bands are quantitated using an ImageJ software. The percentage of inhibition was obtained by calculating the percentage decrease in the band intensity compared to the one treated with TGF-β only.
The results are summarized in Table 1, wherein A represents a value no less of 90% inhibition, B represents a value less than 90% but no less than 80% inhibition, C represents a value less than 80% but no less than 70% inhibition, D represents a value less than 70% but no less than 50% inhibition, and E represents a value less than 50% with a compound at 10 μM.

Question: With `CC1=C(CC(=O)O)c2cc(F)ccc2/C1=C\c1ccc(N(C)c2ccccc2)cc1` [Compound A29, 2-[(1Z)-5-Fluoro-2-methyl-1-({4-[methyl(phenyl)amino]phenyl}methylidene)-1H-inden-3-yl]acetic acid] as the compound, how does the inhibition at 10 µM read?
Answer: 70 to 80%

Question: How did the inhibition at 10 µM turn out when `CC1=C(CC(=O)O)c2cc(F)ccc2/C1=C\c1ccc(N(Cc2ccccc2)c2ccc(F)cc2)cc1` [Compound A30, 2-[(1Z)-1-({4-[Benzyl(4-fluorophenyl)amino]phenyl}methylidene)-5-fluoro-2-methyl-1H-inden-3-yl]acetic acid] was run?
Answer: 70 to 80%

Question: How did the inhibition at 10 µM turn out when `CC1=C(CC(=O)O)c2cc(F)ccc2/C1=C\c1ccc(N(C)c2ccc(F)cc2)cc1` [Compound A31, 2-[(1Z)-5-Fluoro-1-({4-[(4-fluorophenyl)(methyl)amino]phenyl}methylidene)-2-methyl-1H-inden-3-yl]acetic acid] was run?
Answer: > 90%

Question: Which inhibition at 10 µM does the source give for `CCN(c1ccc(F)cc1)c1ccc(/C=C2/C(C)=C(CC(=O)O)c3cc(F)ccc32)cc1` [Compound A32, 2-[(1Z)-1-({4-[Ethyl(4-fluorophenyl)amino]phenyl}methylidene)-5-fluoro-2-methyl-1H-inden-3-yl]acetic acid] here?
Answer: > 90%

Question: How did the inhibition at 10 µM turn out when `CCCN(c1ccc(F)cc1)c1ccc(/C=C2/C(C)=C(CC(=O)O)c3cc(F)ccc32)cc1` [Compound A33, 2-[(1Z)-5-Fluoro-1-({4-[(4-fluorophenyl)(propyl)amino]phenyl}methylidene)-2-methyl-1H-inden-3-yl]acetic acid] was run?
Answer: 70 to 80%

Question: With `CC1=C(CC(=O)O)c2cc(F)ccc2/C1=C\c1ccc(N(CCO)c2ccc(F)cc2)cc1` [Compound A34, 2-[(1Z)-5-Fluoro-1-({4-[(4-fluorophenyl)(2-hydroxyethyl)amino]phenyl}-methylidene)-2-methyl-1H-inden-3-yl]acetic acid] as the compound, how does the inhibition at 10 µM read?
Answer: > 90%

Question: Which inhibition at 10 µM does the source give for `CC1=C(CC(=O)O)c2cc(F)ccc2/C1=C\c1ccc(N(c2ccc(F)cc2)c2ccc(C=O)cc2)cc1` [Compound A35, 2-[(1Z)-5-Fluoro-1-({4-[(4-fluorophenyl)(4-formylphenyl)amino]phenyl}-methylidene)-2-methyl-1H-inden-3-yl]acetic acid] here?
Answer: > 90%

Question: How did the inhibition at 10 µM turn out when `CC1=C(CC(=O)O)c2cc(F)ccc2/C1=C\c1ccc(N(c2ccccc2)c2ccc(C=O)cc2)cc1` [Compound A36, 2-[(1Z)-5-Fluoro-1-({4-[(4-formylphenyl)(phenyl)amino]phenyl}methylidene)-2-methyl-1H-inden-3-yl]acetic acid] was run?
Answer: > 90%

Question: How did the inhibition at 10 µM turn out when `CC1=C(CC(=O)NO)c2cc(F)ccc2/C1=C\c1ccc(N(Cc2ccccc2)c2ccc(F)cc2)cc1` [Compound A38, 2-[(1Z)-1-({4-[Benzyl(4-fluorophenyl)amino]phenyl}methylidene)-5-fluoro-2-methyl-1H-inden-3-yl]-N-hydroxyacetamide] was run?
Answer: 70 to 80%

Question: How did the inhibition at 10 µM turn out when `CC1=C(Cc2nnn[nH]2)c2ccccc2/C1=C\c1cccc(Oc2ccccc2)c1` [Compound A39, 5-{[(1Z)-2-Methyl-1-[(3-phenoxyphenyl)methylidene]-1H-inden-3-yl]methyl}-1H-1,2,3,4-tetrazole] was run?
Answer: > 90%

Question: `CC1=C(Cc2nnn[nH]2)c2ccccc2/C1=C\c1ccc(Oc2ccccc2)cc1` [Compound A40, 5-{[(1Z)-2-Methyl-1-[(4-phenoxyphenyl)methylidene]-1H-inden-3-yl]methyl}-1H-1,2,3,4-tetrazole] was tested. Which inhibition at 10 µM did it give?
Answer: > 90%

Question: For `CC1=C(CCc2nnn[nH]2)c2ccccc2/C1=C\c1ccc(Oc2ccc(Br)cc2)cc1` [Compound A42, 5-{2-[(1Z)-1-{[4-(4-Bromophenoxy)phenyl]methylidene}-2-methyl-1H-inden-3-yl]ethyl}-1H-1,2,3,4-tetrazole], which inhibition at 10 µM is on record?
Answer: 70 to 80%

Question: For `CC1=C(CCc2nnn[nH]2)c2ccccc2/C1=C\c1ccc(Oc2ccc(C(C)C)cc2)cc1` [Compound A43, 5-{2-[(1Z)-2-Methyl-1-({4-[4-(propan-2-yl)phenoxy]phenyl}methylidene)-1H-inden-3-yl]ethyl}-1H-1,2,3,4-tetrazole], which inhibition at 10 µM is on record?
Answer: > 90%

Question: `CC1=C(CCc2nnn[nH]2)c2ccccc2/C1=C\c1ccc(Oc2ccc(C(F)(F)F)cc2)cc1` [Compound A45, 5-{2-[(1Z)-2-Methyl-1-({4-[4-(trifluoromethyl)phenoxy]phenyl}methylidene)-1H-inden-3-yl]ethyl}-1H-1,2,3,4-tetrazole] was tested. Which inhibition at 10 µM did it give?
Answer: > 90%

Question: How did the inhibition at 10 µM turn out when `CC1=C(CCc2nnn[nH]2)c2ccccc2/C1=C\c1ccc(Oc2cccc(C)c2)cc1` [Compound A46, 5-{2-[(1Z)-2-Methyl-1-{[4-(3-methylphenoxy)phenyl]methylidene}-1H-inden-3-yl]ethyl}-1H-1,2,3,4-tetrazole] was run?
Answer: > 90%

Question: `CC1=C(CCc2nnn[nH]2)c2ccccc2/C1=C\c1ccc(Oc2cccc(C#N)c2)cc1` [Compound A47, 3-(4-{[(1Z)-2-Methyl-3-[2-(1H-1,2,3,4-tetrazol-5-yl)ethyl]-1H-inden-1-ylidene]methyl}phenoxy)benzonitrile] was tested. Which inhibition at 10 µM did it give?
Answer: > 90%

Question: For `COc1cccc(Oc2ccc(/C=C3/C(C)=C(CCc4nnn[nH]4)c4ccccc43)cc2)c1` [Compound A48, 5-{2-[(1Z)-1-{[4-(3-Methoxyphenoxy)phenyl]methylidene}-2-methyl-1H-inden-3-yl]ethyl}-1H-1,2,3,4-tetrazole], which inhibition at 10 µM is on record?
Answer: > 90%

Question: `CC1=C(CCc2nnn[nH]2)c2ccccc2/C1=C\c1ccc(Oc2ccc3ccccc3c2)cc1` [Compound A51, 5-{2-[(1Z)-2-Methyl-1-{[4-(naphthalen-2-yloxy)phenyl]methylidene}-1H-inden-3-yl]ethyl}-1H-1,2,3,4-tetrazole] was tested. Which inhibition at 10 µM did it give?
Answer: > 90%

Question: With `C1=C(Cc2nnn[nH]2)c2ccccc2/C1=C/c1cccc(Oc2ccccc2)c1` [Compound A54, 5-{[(1E)-1-[(3-Phenoxyphenyl)methylidene]-1H-inden-3-yl]methyl}-1H-1,2,3,4-tetrazole] as the compound, how does the inhibition at 10 µM read?
Answer: > 90%

Question: For `CC1=C(CC(=O)O)c2cc(F)ccc2/C1=C\c1ccc(N2CCOCC2)cc1` [Compound A55, 2-[(1Z)-5-Fluoro-2-methyl-1-{[4-(morpholin-4-yl)phenyl]methylidene}-1H-inden-3-yl]acetic acid], which inhibition at 10 µM is on record?
Answer: < 50%

Question: With `CC1=C(CC(=O)O)c2cc(F)ccc2/C1=C\c1ccc(-n2cccc2)cc1` [Compound A60, 2-[(1Z)-5-Fluoro-2-methyl-1-{[4-(1H-pyrrol-1-yl)phenyl]methylidene}-1H-inden-3-yl]acetic acid] as the compound, how does the inhibition at 10 µM read?
Answer: < 50%

Question: With `CC1=C(CC(=O)O)c2c(ccc(F)c2F)/C1=C\c1ccc(Oc2ccc(F)cc2)cc1` [Compound A68, 2-[(1Z)-4,5-Difluoro-1-{[4-(4-fluorophenoxy)phenyl]methylidene}-2-methyl-1H-inden-3-yl]acetic acid] as the compound, how does the inhibition at 10 µM read?
Answer: > 90%

Question: With `CC1=C(CC(=O)O)c2c(ccc(F)c2C)/C1=C\c1ccc(Oc2ccc(F)cc2)cc1` [Compound A69, 2-[(1Z)-5-Fluoro-1-{[4-(4-fluorophenoxy)phenyl]methylidene}-2,4-dimethyl-1H-inden-3-yl]acetic acid] as the compound, how does the inhibition at 10 µM read?
Answer: > 90%

Question: For `CC1=C(CC(=O)NO)c2cc(F)ccc2/C1=C\c1ccc(N(CCO)c2ccc(F)cc2)cc1` [Compound A85, 2-[(1Z)-5-Fluoro-1-({4-[(4-fluorophenyl)(2-hydroxyethyl)amino]phenyl}-methylidene)-2-methyl-1H-inden-3-yl]-N-hydroxyacetamide], which inhibition at 10 µM is on record?
Answer: > 90%

Question: Which inhibition at 10 µM does the source give for `CC1=C(CC(=O)O)c2cc(F)ccc2/C1=C\c1ccc(C(C)(C)C)cc1` [Compound B10, (Z)-2-(5-fluoro-2-methyl-1-(4-t-butylbenzylidene)-1H-inden-3-yl)acetic acid] here?
Answer: 70 to 80%

Question: For `CC1=C(CCc2nnn[nH]2)c2ccccc2/C1=C\c1ccc(C(C)C)cc1` [Compound B30, (Z)-5-(2-(1-(4-isopropylbenzylidene)-2-methyl-1H-inden-3-yl)ethyl)-1H-tetrazole], which inhibition at 10 µM is on record?
Answer: > 90%

Question: How did the inhibition at 10 µM turn out when `CC1=C(CC(=O)O)c2cc(F)ccc2/C1=C\c1ccc2ccccc2c1` [Compound B34, 2-[(1Z)-5-fluoro-2-methyl-1-[(naphthalen-2-yl)methylidene]-1H-inden-3-yl]acetic acid] was run?
Answer: > 90%

Question: `CC1=C(CC(=O)O)c2cc(F)ccc2/C1=C\c1ccc(C)c2ccccc12` [Compound B35, 2-[(1Z)-5-fluoro-2-methyl-1-[(4-methylnaphthalen-1-yl)methylidene]-1H-inden-3-yl]acetic acid] was tested. Which inhibition at 10 µM did it give?
Answer: > 90%

Question: Which inhibition at 10 µM does the source give for `COc1ccc2ccccc2c1/C=C1/C(C)=C(CC(=O)O)c2cc(F)ccc21` [Compound B36, 2-[(1Z)-5-fluoro-1-[(2-methoxynaphthalen-1-yl)methylidene]-2-methyl-1H-inden-3-yl]acetic acid] here?
Answer: > 90%

Reference: US12649712B2, “Indene compounds, pharmaceutical compositions thereof, and their therapeutic applications” (NucMito Pharmaceuticals Co. Ltd., priority 2020, dated 2026)
